# In US20060269631A1, “Morinda citrifolia-based formulation for inhibiting metastasis of carcinogenic cells” (priority 2003, published 2006):
# Values joined by “and” are separate entries in the source; they are usually repeats but may differ in a detail not shown here. Equal entries are not always repeated. Marks after values point to notes of the source that are not given here.
# Assays:
# [1] = system: L-1 sarcoma cells; settings: in vivo; cited from earlier work
# [2] = system: Lu-ECAM-1; settings: among a series of carbohydrates; cited from earlier work
# [3] = system: B16-F0 murine melanoma cells; experiment: in vivo metastasis test, syngeneic tumor metastasis model of melanoma B16-F0 cells in C57BL/6J mice; settings: for % Inhibition: vs vehicle control
# Description: An in vivo metastasis test was performed, wherein groups of 6 (positive control), 6 (Morinda citrifolia-PPT test group), and 9 (vehicle control) immunocompetent (6-8 weeks old), pathogen-free (SPF) C57BL/6 male mice were used in this study and bred in animal isolator (IVC racks) under specific pathogens free (SPF) condition at 23±1° C. Viable B16F0 murine melanoma cells (ATCC CRL-6322, 6×10^4 in 0.2 mL) were inoculated into experimental mice intravenously, via tail vein. Mice were administered the Morinda citrifolia-PPT, 1% in drinking water ad libitum, for one week prior to tumor cell implantation and three weeks afterwards. Additionally, 0.8 mg Morinda citrifolia-PPT/mouse was injected intraperitoneally (IP) for 21 consecutive days following tumor cell implantation. Concurrently, the reference agent, mitomycin, was administrated IP at 1 mg/Kg twice per week for six doses after tumor cell implantation.
# (§1) In the vehicle control group, the distilled water was administrated at 10 ml/Kg IP for three consecutive weeks. The body weight for all mice was recorded at day 1, day 8, day 15, and day 22 following tumor cell implantation. The lungs were excised and fixed 21 days after tumor inoculation. Metastatic nodules on the lung surface were then counted under a dissecting microscope. The student's t test was used to determine the statistical difference between the groups of treatment and vehicle control groups in a statistic analysis.
# Relating to the Table 1 above, viable B16-F0 murine melanoma cells were inoculated into C57B1/6J mice. Mice were administered ad libitum 1% Morinda citrifolia-PPT one week prior to the implantation and throughout the experiment. […] distilled water (vehicle control), 0.8 mg/m and 4 mg/mouse of Morinda citrifolia-PPT were injected I.P. into mice for 21 consecutive days following the inoculation. Mitomycin was used as a positive control and injected twice a week at 1 mg/Kg for a total of six doses. The lungs were excised and fixed at the end of experiment and the metastasis nodules on the lung surface were counted under a dissecting microscope. The test was used to determine the significant difference between the groups of treatment and vehicle control. (SEM=standard error of mean; ^b p<0.006; ^c p<0.005.)
# In the syngeneic tumor metastasis model of melanoma B16-F0 cells in C57BL/6J mice, MDA-4 was administered at 1% (10 mg/ml) by a drinking method for one week for pre-treatment, and for three weeks after the tumor cells were implanted, during the study and throughout the experiment for a total of 28 treatments. Additionally, MDA-4 at a dose of 0.8 mg/mouse was administered intraperitoneally (IP) daily for a total of 21 consecutive days after tumor cells were implanted in the mice.
# During the experiment, the test substance MDA-4 was provided by Morinda, Inc. and used for in vivo anti-metastasis studies. MDA-4 was dissolved in sterile distilled water and, as stated, administrated with 1% (10 mg/ml) drinking method for one week pre-treatment, and three week after tumor cells were implanted during the study throughout the experiment for a total of 28 treatments. Additionally, as stated, MDA-4 at dose of 0.8 mg/mouse was administrated intraperitoneally (IP) daily for a total of 21 consecutive days after tumor cells implanted.
# The murine melanoma cell line, B16-F0 (ATCC CRL-6322), was purchased from American Type Culture Collection and Dulbecco's Modified Eale's medium, 90% with Fetal Bovine Serum, 10% was used as culture medium. The tumor cells were incubated in an atmosphere containing 5% CO2 at 37° C. The medium was supplemented with 1% Antibiotic-Antimycotic.
# Specific pathogen-free male C57BL/6J mice at 6-8 weeks of age, weighing 24-28 gms were provided by National Taiwan University Animal Center. The animals were housed in Individually Ventilated Cages Racks (IVC Racks, 36 Mini Isolator System) under Specific Pathogen-Free (SPF) conditions throughout the experiment. […]
# [4] = body weight post-implantation and toxic symptoms in the metastasis study; assay type: in vivo, mice
# Description: as §1
# [5] = system: NRK 2 cells, fibronectin-coated well; experiment: adhesion of NRK 2 cells to a fibronectin-coated well; assay type: cell-based, rat
# Description: One assay measured the adhesion of NRK 2 (normal rat kidney cell, ATCC CRL-6509) cells to a fibronectin-coated well. Morinda citrifolia-PPT, the 0.1 N NaCl Morinda citrifolia-PPT fraction, GRGDSP peptide (SIGMA), and 0.4% DMSO (SIGMA, vehicle control) in modified MEM-HEPES buffer pH 7.4 (Hyclone) were incubated in separate wells for 30 minutes at 37° C. The reaction was initiated by addition of NRK 2 cells (2×10^6/ml) and run for 30 minutes. Each well was then washed 6 times with Dulbecco's PBS (Hyclone) followed by addition of 5 μM calcein AM (SIGMA) and a further 2 hour incubation period. Quantitation of fluorescent intensity, resulting from interaction of calcein AM with cells attached to the fibronectin coated plate, was read by a SpectrFluor Plus plate reader (AG Flwith excitation at 485 nm and emission at 535 nm.
# Relating to Table 3, NRK 2 cells were used to adhere to fibronectin-coated wells. Quantitation of fluorescent intensity resulting from interaction of calcein AM with cells attached to the fibronectin coated plate was read by a SpectrFluor Plus plate reader.
# [6] = individual mouse, R = diameter of nodule
compound,measurement,setting,value
O=C[C@H](O)[C@@H](O)[C@@H](O)[C@H](O)CO [D-galactose],inhibition of liver metastasis,[1],inhibit
CC(=O)NC1C(OC2C(O)C(CO)OC(OC3C(CO)OC(O)C(O)C3O)C2O)OC(CO)C(O)C1OC1OC(CO)C(O)C(O)C1OC1OC(C)C(O)C(O)C1O (stereo not shown) [Lacto-N-fucopentose I],blocking of adhesion of B16-F10 to Lu-ECAM-1,[2],most effectively blocked adhesion
CO[C@@]12[C@H](COC(N)=O)C3=C(C(=O)C(C)=C(N)C3=O)N1C[C@@H]1N[C@@H]12 [Mitomycin],metastasis inhibition,"[3]; PPT at 0.8 mg/mouse combined with free drinking, mitomycin at 1 mg/Kg",55%
same,% Inhibition,"[3]; Table 1, PPT 0.8 mg/mouse, mitomycin 1 mg/Kg",60%^c
same,No. of Metastastic Nodules in the Lung,"[3]; Table 4, mean ± SEM, MDA-4 drinking 1% x28 & IP 0.8 mg/mouse x21, mitomycin IP 1 mg/kg x6",22 ± 2
same,% Inh.,"[3]; Table 4, vs vehicle, MDA-4 drinking 1% x28 & IP 0.8 mg/mouse x21, mitomycin IP 1 mg/kg x6",55%
same,"No. of Metastastic Nodules in the Lung, Total Nodules, X ± SEM","[3]; Table 5, group mean",22 ± 2
same,"No. of Metastastic Nodules in the Lung, Total Nodules","[3]; Table 5, individual mouse",23 and 24 and 19
same,% Inhibition,"[3]; Table 5, MDA-4 drinking 1% x28 & IP 0.8 mg/mouse x21, mitomycin IP 1 mg/kg x6",55%
same,"No. of Metastastic Nodules in the Lung, 1 mm<",[3]; [6],6 and 7 and 4
same,"No. of Metastastic Nodules in the Lung, R < 1 mm",[3]; [6],16 and 17 and 15
same,"No. of Metastastic Nodules in the Lung, R > 2 mm",[3]; [6],1 and 0 (2×)
same,No. of Metastasis Nodules in the Lung,"[3]; individual mouse, lungs excised 21 days after inoculation, PPT 0.8 mg/mouse IP x21 + 1% in drinking water, mitomycin 1 mg/Kg IP x6",23 and 24 and 19
same,"Body Weight of Post-Implantation, Day 1, Mean ± SEM",[4]; group mean,27.7 ± 0.9 g
same,"Body Weight of Post-Implantation, Day 8, Mean ± SEM",[4]; group mean,28.0 ± 0.6 g
same,"Body Weight of Post-Implantation, Day 15, Mean ± SEM",[4]; group mean,27.3 ± 0.9 g
same,"Body Weight of Post-Implantation, Day 22, Mean ± SEM",[4]; group mean,27.3 ± 0.9 g
same,body weight change compared to the vehicle control group,[4]; in words,no body weight increase
same,"Body Weight of Post-Implantation, Day 1",[4]; individual mouse,28 g and 29 g and 26 g
same,"Body Weight of Post-Implantation, Day 8",[4]; individual mouse,28 g and 29 g and 27 g
same,"Body Weight of Post-Implantation, Day 15",[4]; individual mouse,27 g and 29 g and 26 g
same,"Body Weight of Post-Implantation, Day 22",[4]; individual mouse,27 g and 29 g and 26 g
GRGDSP peptide,"Percentage adhesion inhibition, fibronectin mediated",[5]; Conc. 31.25 μg/ml,16
same,"Percentage adhesion inhibition, fibronectin mediated",[5]; Conc. 62.5 μg/ml,22
same,"Percentage adhesion inhibition, fibronectin mediated",[5]; Conc. 125 μg/ml,43
same,"Percentage adhesion inhibition, fibronectin mediated",[5]; Conc. 250 μg/ml,78
same,"Percentage adhesion inhibition, fibronectin mediated",[5]; Conc. 500 μg/ml,98
arabinogalctose,inhibition of liver metastasis,[1],inhibit
